Patent US8329675B2, “Inhibitors of fatty acid amide hydrolase” (Infinity Pharmaceuticals, Inc., priority 2006, dated 2012)

Biological target: T1, human FAAH (Homo sapiens, UniProt O00519)
T1 construct: host or cells: COS-7 cells, transient transfection; 13,000 g membrane fraction solubilised in 1% Triton X-100
T1 sequence (O00519 1-579): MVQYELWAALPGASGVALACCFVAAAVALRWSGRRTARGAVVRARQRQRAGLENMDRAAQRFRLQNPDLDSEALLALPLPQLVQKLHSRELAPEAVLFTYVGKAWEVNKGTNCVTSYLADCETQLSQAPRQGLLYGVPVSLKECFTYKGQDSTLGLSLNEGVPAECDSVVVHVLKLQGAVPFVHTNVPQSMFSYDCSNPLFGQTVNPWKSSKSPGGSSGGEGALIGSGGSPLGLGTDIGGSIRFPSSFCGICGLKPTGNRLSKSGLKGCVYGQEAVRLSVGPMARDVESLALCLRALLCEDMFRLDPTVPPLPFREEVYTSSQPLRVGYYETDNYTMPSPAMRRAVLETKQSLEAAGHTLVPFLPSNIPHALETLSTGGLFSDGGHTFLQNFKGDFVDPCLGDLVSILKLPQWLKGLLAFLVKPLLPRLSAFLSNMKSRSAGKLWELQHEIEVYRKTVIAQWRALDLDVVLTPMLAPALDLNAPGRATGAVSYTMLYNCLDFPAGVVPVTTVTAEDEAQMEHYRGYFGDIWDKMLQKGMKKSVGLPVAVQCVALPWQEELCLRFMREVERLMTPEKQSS
Assay: Human FAAH biochemical inhibition assay (AMC arachidonoyl amide fluorescence)
Conditions: not given
Procedure, shortened: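 Solubilized membrane fraction from COS-7 cells transfected with human FAAH, used at a final 0.05 mg/ml in 50 mM Hepes pH 7.5, 1 mM EDTA, 0.2% Triton X-100. Inhibitor pre-incubated 30 min at room temperature; 20 uM final AMC arachidonoyl amide added, reaction run 4 h at room temperature, fluorescence read.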

Compound | Ki
OB(O)c1ccc(-c2ccccc2)cc1 [Compound I-187] | 10 to 100 nM

Same assay, conditions: Table 1, human FAAH (no asterisk); read-out: Activity (Ki)

Ki | Compound
> 1000 nM | OB(O)c1ccccc1 [Compound I-107]
10 to 1000 nM | OB(O)c1ccsc1Cl [Compound I-51]
10 to 1000 nM | OB(O)c1ccc2c3c(cccc13)CC2 [Compound I-181]
10 to 100 nM | OB(O)c1cccc(OCc2cccc(Cl)c2)c1 [Compound I-141]
10 to 1000 nM | COc1ccc(B(O)O)cc1Cl [Compound I-32]
> 1000 nM | OB(O)c1cc2ccccc2nc1Cl [Compound I-160]
> 1000 nM | CS(=O)(=O)c1cccc(B(O)O)c1 [Compound I-47]
< 10 nM | OB(O)c1ccc(C2CCCCC2)cc1 [Compound I-162]
> 1000 nM | COc1cccc(COc2c(Br)cccc2B(O)O)c1 [Compound I-5]
10 to 100 nM | OB(O)c1cccc(OCc2ccccc2Cl)c1 [Compound I-140]
> 1000 nM | COc1ccccc1B(O)O [Compound I-78]
> 1000 nM | COc1ccc(B(O)O)cc1OC [Compound I-77]
> 1000 nM | CC1(C)OB(c2ccc(/C=C\c3ccccc3)cc2)OC1(C)C [Compound I-126]
> 1000 nM | OB(O)c1ccccc1OCc1ccccc1 [Compound I-182]
10 to 1000 nM | CCOc1ccc(B(O)O)cc1 [Compound I-59]
> 1000 nM | OB(O)c1c(F)c(F)cc(F)c1F [Compound I-55]
> 1000 nM | COc1cc(B(O)O)cc(C(F)(F)F)c1 [Compound I-21]
10 to 1000 nM | OB(O)c1cc(I)ccc1F [Compound I-1]

Ki | Compound
10 to 100 nM | OB(O)c1csc2ccccc12 [Compound I-197]
10 to 100 nM | OB(O)c1ccc2ccccc2c1 [Compound I-178]
10 to 1000 nM | COc1cc(F)cc(B(O)O)c1 [Compound I-15]
> 1000 nM | OB(O)c1cccs1 [Compound I-40]
> 1000 nM | OB(O)c1ccoc1 [Compound I-64]
> 1000 nM | OB(O)c1cnc2ccccc2c1 [Compound I-65]
10 to 100 nM | OB(O)c1ccc(-c2cccs2)cc1 [Compound I-31]
> 1000 nM | COc1ccc(B(O)O)cc1 [Compound I-87]
10 to 100 nM | CC(C)(C)c1ccc(B(O)O)cc1 [Compound I-94]
< 10 nM | CCOc1ccc2cc(B(O)O)ccc2c1 [Compound I-52]
< 10 nM | CCCCCc1ccc(B(O)O)cc1 [Compound I-161]
10 to 1000 nM | CS(=O)(=O)c1ccc(B(O)O)cc1 [Compound I-84]
> 1000 nM | O=C(Nc1ccccc1)c1cccc(B(O)O)c1 [Compound I-165]
10 to 1000 nM | OB(O)c1cccc(Cl)c1 [Compound I-73]
> 1000 nM | CCCOc1c(F)c(F)c(B(O)O)c(F)c1F [Compound I-54]
> 1000 nM | OB(O)c1ccc2c(c1)OCO2 [Compound I-88]
10 to 100 nM | OB(O)c1ccc2cc(O)ccc2c1 [Compound I-168]
10 to 100 nM | O=C(Nc1ccc(B(O)O)cc1)OCc1ccccc1 [Compound I-163]

Same assay, conditions: Table 2, human FAAH (no asterisk); read-out: Activity (Ki)

Ki | Compound
< 10 nM | OB(O)c1ccc(OCCc2ccc(Cl)c(Cl)c2)cc1F [II-62]
> 1000 nM | OB(O)c1ccc(CBr)cc1 [II-241]
> 1000 nM | CC1(C)OB(c2ccc(CN(Cc3ccccc3)Cc3ccccc3)cc2)OC1(C)C [II-178]
< 10 nM | CN(CCc1ccccc1)C(=O)c1ccc(B(O)O)cc1 [II-229]
> 1000 nM | CN(C)CCN(Cc1ccccc1)C(=O)C(Oc1ccc(B(O)O)cc1)c1ccccc1 (stereo not shown) [II-214]
> 1000 nM | OB(O)c1ccc(-c2nc3ccccc3s2)cc1 [II-36]
10 to 1000 nM | O=C(OCc1ccccc1)c1cc(Oc2cccc(F)c2)ccc1B(O)O [II-151]
< 10 nM | O=C1c2ccc(B(O)O)cc2CC1Cc1ccccc1 (stereo not shown) [II-29]
10 to 100 nM | OB(O)c1ccc(COC2CCCc3ccccc32)cc1 (stereo not shown) [II-123]
10 to 100 nM | Cc1cc(B(O)O)cc(C)c1Oc1cccc(F)c1 [II-283]
< 10 nM | OB(O)c1ccc(Oc2ccc(Cl)c(C(F)(F)F)c2)cc1 [II-257]
< 10 nM | OB(O)c1ccc(Oc2cc(F)cc(F)c2)cc1 [II-260]
10 to 1000 nM | OB(O)c1ccc(OCCN2CCCCC2)cc1F [II-69]
10 to 100 nM | OB(O)c1ccc(COCC2CCCCC2)cc1 [II-100]
10 to 100 nM | OB(O)c1ccc(OCc2ccn[nH]2)cc1F [II-134]
< 10 nM | N#Cc1cc(Oc2cccc(F)c2)ccc1B(O)O [II-203]
10 to 1000 nM | O=C(Nc1ccc(B(O)O)cc1)c1ccccc1 [II-249]
10 to 100 nM | CC1(C)OB(c2ccc(OCCCCc3ccccc3)cc2)OC1(C)C [II-166]
10 to 1000 nM | [O-][S+](Cc1ccccc1)Cc1ccc(B(O)O)c(F)c1 (stereo not shown) [II-81]
10 to 100 nM | c1ccc(-c2ccc(B3CCCO3)cc2)cc1 [II-184]
10 to 100 nM | O=C(c1ccccc1)c1ccc(-c2ccc(B(O)O)cc2)cc1 [II-298]
> 1000 nM | CN(C)[C@@H](COc1ccc(B(O)O)c(F)c1)Cc1ccccc1 [II-103]

Ki | Compound
10 to 100 nM | OB(O)c1ccc(-c2cccnc2)cc1F [II-13]
10 to 100 nM | CCO/N=C(\c1ccccc1)c1ccc(B(O)O)cc1 [II-116]
10 to 1000 nM | CC(C)(C)c1ccc(-c2ccc(B(O)O)cc2)cc1 [II-296]
> 1000 nM | Cn1ccc2cc(B(O)O)ccc21 [II-125]
10 to 100 nM | OB(O)c1ccc(OCc2cn(C3CCCC3)nn2)cc1F [II-1]
10 to 100 nM | OB(O)c1ccc(CCOc2ccccc2)cc1 [II-117]
< 10 nM | CC(C)Oc1cccc(Oc2ccc(B(O)O)cc2)c1 [II-245]
> 1000 nM | O=S(=O)(Cc1ccccc1)c1ccc(B(O)O)cc1 [II-222]
< 10 nM | OB(O)c1ccc(OCCc2ccccc2)cc1 [II-167]
10 to 100 nM | OB(O)c1ccc(Oc2cc(Cl)cc(Cl)c2)cc1 [II-258]
10 to 100 nM | OB(O)c1ccc(Oc2cccc(F)c2)cc1C(F)(F)F [II-202]
> 1000 nM | Cc1cc(CNc2ccc(B3OC(C)(C)C(C)(C)O3)cc2)ccc1F [II-188]
10 to 1000 nM | OB(O)c1ccc(C(OCc2ccccc2)c2ccccc2)cc1 (stereo not shown) [II-63]
10 to 1000 nM | CN(C)c1cc(Oc2ccc(Cl)cc2)cc(Oc2ccc(B(O)O)cc2)c1 [II-181]
10 to 100 nM | OB(O)c1cccc(OCCCc2ccccc2)c1 [II-115]
10 to 100 nM | COC(=O)c1cc(Oc2cccc(F)c2)ccc1B(O)O [II-183]
< 10 nM | CC(C)NC(=O)c1cccc(Oc2ccc(B(O)O)cc2)c1 [II-225]
10 to 100 nM | CC1(C)OB(c2ccc(OCc3cccnc3)cc2F)OC1(C)C [II-161]
10 to 100 nM | O=C(c1cccc(Oc2ccc(B(O)O)cc2)c1)N1CCCC1 [II-226]
< 10 nM | CC(OCc1ccc(B(O)O)cc1)c1ccccc1 (stereo not shown) [II-126]
< 10 nM | OB(O)c1ccc(OCCCc2ccccc2)cc1 [II-169]
10 to 100 nM | Nc1cccc(Oc2ccc(B(O)O)cc2)c1 [II-287]

Ki | Compound
10 to 100 nM | Cc1cc(Oc2cccc(F)c2)ccc1B(O)O [II-209]
10 to 100 nM | CC(Oc1ccc(B(O)O)cc1)c1ccccc1 (stereo not shown) [II-238]
10 to 100 nM | OB(O)c1ccc(OCc2ccccc2)cc1 [II-314]
10 to 100 nM | CN(Cc1ccccc1)Cc1ccc(B(O)O)c(F)c1 [II-90]
10 to 100 nM | Cc1cc(COc2ccc(B(O)O)cc2)ccc1F [II-267]
< 10 nM | CN(C)c1cccc(Oc2ccc(B(O)O)cc2F)c1 [II-205]
10 to 100 nM | OB(O)c1ccc(Oc2cccc(N3CCCC3)c2)cc1F [II-197]
< 10 nM | OB(O)c1cc(F)c(Oc2cccc(F)c2)c(F)c1 [II-198]
10 to 100 nM | Cc1cc(-c2cccc(F)c2)ccc1B(O)O [II-208]
< 10 nM | CC(C)OC(=O)c1cccc(Oc2ccc(B(O)O)cc2)c1 [II-236]
< 10 nM | OB(O)c1ccc(OCCc2ccccc2)cc1F [II-8]
< 10 nM | OB(O)c1ccc(CN2CCCc3ccccc32)cc1 [II-143]
> 1000 nM | OB(O)c1ccc(-c2nc3ccccc3[nH]2)cc1 [II-64]
< 10 nM | OB(O)c1ccc(OCCc2ccncc2)cc1F [II-110]
< 10 nM | O=C(CCc1ccc(B(O)O)c(F)c1)c1ccccc1 [II-27]
< 10 nM | OB(O)c1ccc(OCCc2cccc(Cl)c2)cc1F [II-61]
< 10 nM | CC1(C)OB(c2ccc(Cn3ccc4ccccc43)cc2)OC1(C)C [II-153]
< 10 nM | OB(O)c1ccc2c(c1)CCC(OCc1ccccc1)C2 (stereo not shown) [II-95]
< 10 nM | OB(O)c1ccc(-c2cccc(-c3ccccc3)c2)cc1F [II-26]
< 10 nM | OB(O)c1ccc(OCCc2cccc(C(F)(F)F)c2)cc1F [II-53]
< 10 nM | OB(O)c1ccc(COCc2cccc(C(F)(F)F)c2)cc1F [II-72]
< 10 nM | COc1ccc(Oc2ccc(B(O)O)cc2)cc1 [II-278]
